This note sets out measurements from ChEMBL document CHEMBL6127100, “Plant based steroidal and triterpenoid sapogenins: Chemistry on diosgenin and biological aspects” (Eur J Med Chem, 2024).

Structures are written as SMILES.

One experiment concerns BT-474. In words: Cytotoxicity against human BT-474 cells. The format is functional, cell-based.
The subject of experiment [1] is DU-145. In words: Cytotoxicity against human DU-145 cells. The class given is functional, cell-based.
In experiment [2] the test system is HeLa. The experiment can be described thus: Growth inhibition of human HeLa cells. The format is functional.
The subject of experiment [3] is A549. The experiment can be described thus: Anticancer activity against human A549 cells assessed as inhibition of cell growth incubated for 48 hrs by MTT assay. The class given is functional, cell-based. As to conditions: A549, 48 h.
The next experiment has as its system PC-9. In words: Anticancer activity against human PC-9 cells assessed as inhibition of cell growth incubated for 48 hrs by MTT assay. The note with it: PC-9, 48 h. The class given is functional, cell-based. In general terms: Tetrazolium assays rely on reduction of a dye to a coloured formazan, in cell work by metabolically active cells.
Experiment [4] concerns A549. In words: Antiproliferative activity against human A549 cells assessed as inhibition of cell growth incubated for 48 hrs by tryphan blue dye based assay. The class given is functional. The note with it: A549, 48 h.
For another experiment, the system named is HBL. The experiment can be described thus: Antiproliferative activity against human HBL cells assessed as inhibition of cell growth incubated for 48 hrs by tryphan blue dye based assay. The format is functional.
Another experiment concerns SW1573. The experiment can be described thus: Antiproliferative activity against human SW1573 cells assessed as inhibition of cell growth incubated for 48 hrs by tryphan blue dye based assay. As to conditions: SW1573, 48 h. The format is functional.
The subject of experiment [5] is HeLa. In words: Antiproliferative activity against human HeLa cells assessed as inhibition of cell growth incubated for 48 hrs by tryphan blue dye based assay. The format is functional.
For a further experiment, the system named is T47D. The experiment can be described thus: Antiproliferative activity against human T47D cells assessed as inhibition of cell growth incubated for 48 hrs by tryphan blue dye based assay. The format is functional.
In another experiment the test system is WiDr. In words: Antiproliferative activity against human WiDr cells assessed as inhibition of cell growth incubated for 48 hrs by tryphan blue dye based assay. The class given is functional.
Experiment [6] relates to HeLa. The experiment can be described thus: Cytotoxicity against human HeLa cells assessed as reduction in cell viability incubated for 24 hrs by MTT assay. The format is functional, cell-based.
In experiment [7] the test system is MCF7. In words: Cytotoxicity against human MCF7 cells assessed as reduction in cell viability incubated for 24 hrs by MTT assay. The class given is functional, cell-based. The note with it: MCF7, 24 h.
The test system of experiment [8] is HeLa. The experiment can be described thus: Antiproliferative activity against human HeLa cells assessed as reduction in cell growth by MTT assay. The class given is functional, cell-based.
Experiment [9] concerns A549. In words: Cytotoxicity against human A549 cells assessed as reduction in cell growth incubated for 48 hrs by SRB assay. The format is functional, cell-based. As to conditions: A549, 48 h. Background: Sulforhodamine B stains cellular protein and so reports cell mass.
The test system of experiment [10] is DLD-1. In words: Cytotoxicity against human DLD-1 cells assessed as reduction in cell growth incubated for 48 hrs by SRB assay. The format is functional, cell-based. As to conditions: DLD-1, 48 h.
The subject of experiment [11] is MCF7. The experiment can be described thus: Cytotoxicity against human MCF7 cells assessed as reduction in cell growth incubated for 48 hrs by SRB assay. The note with it: MCF7, 48 h. The format is functional, cell-based.
Experiment [12] deals with DU-145. The experiment can be described thus: Cytotoxicity against human DU-145 cells assessed as reduction in cell growth incubated for 48 hrs by SRB assay. The class given is functional, cell-based. As to conditions: DU-145, 48 h.
In experiment [13] the test system is FaDu. The experiment can be described thus: Cytotoxicity against human FaDu cells assessed as reduction in cell growth incubated for 48 hrs by SRB assay. The format is functional, cell-based.
Experiment [14] has as its system RAW264.7. The experiment can be described thus: Antiinflammatory activity in LPS-induced mouse RAW264.7 cells assessed as inhibition of IL-6 production pretreated for 1 hr followed by LPS stimulation and measured after 3 hrs by ELISA. As to conditions: time 4 hrs. Further details: scale not given: the % may be the effect or the level left. The format is functional. (In general: ELISA stands for enzyme-linked immunosorbent assay.)

For experiment [15], the system named is RAW264.7. The experiment can be described thus: Anti-inflammatory activity in mouse RAW264.7 cells assessed as inhibition of LPS-induced TNFalpha production preincubated for 1 hr followed by LPS addition and measured after 24 hrs by ELISA. The note with it: time 25 hrs. Further details: scale not given: the % may be the effect or the level left. The class given is functional.

In experiment [16] the test system is A549. The experiment can be described thus: Cytotoxicity against human A549 cells. The class given is functional, cell-based.
The subject of experiment [17] is DLD-1. In words: Cytotoxicity against human DLD-1 cells. The format is functional, cell-based.
The test system of experiment [18] is MCF7. In words: Cytotoxicity against human MCF7 cells. The format is functional, cell-based.
Experiment [19] has as its system DU-145. In words: Antiproliferative activity against human DU-145 cells. The class given is functional, cell-based.
Experiment [20] concerns FaDu. The experiment can be described thus: Antiproliferative activity against human FaDu cells. The format is functional, cell-based.
A further experiment relates to MDA-MB-231. The experiment can be described thus: Cytotoxicity against human MDA-MB-231 cells assessed as reduction in cell viability incubated for 24 hrs by MTT assay. The note with it: MDA-MB-231, 24 h. The class given is functional, cell-based.
The next experiment deals with Jurkat. In words: Cytotoxicity against human Jurkat cells assessed as reduction in cell viability incubated for 24 hrs by MTT assay. The format is functional, cell-based.
The subject of experiment [21] is RAW264.7. The experiment can be described thus: Anti-inflammatory activity in LPS-induced mouse RAW264.7 cells assessed as reduction in TNF-alpha production at by ELISA. Further details: scale not given: the % may be the effect or the level left. The class given is functional.
In experiment [22] the test system is RAW264.7. In words: Anti-inflammatory activity in LPS-induced mouse RAW264.7 cells assessed as inhibition of IL-6 production at by ELISA. The format is functional. Further details: scale not given: the % may be the effect or the level left.
In experiment [23] the test system is HeLa. The experiment can be described thus: Antiproliferative activity against human HeLa cells assessed as reduction in cell growth. The format is functional, cell-based.
For a further experiment, the system named is HepG2. The experiment can be described thus: Antiproliferative activity against human HepG2 cells assessed as reduction in cell growth. The format is functional, cell-based.

One may read the IC50 as the point on the concentration scale where inhibition reaches its midpoint. As usually defined, the GI50 is the concentration that inhibits growth by half.

Take `CC(=O)O[C@@H]1C=C2/C(=N/O)C[C@H]3[C@@H]4C[C@@H]5OC(=O)[C@@H](C)[C@@H]5[C@@]4(C)CC[C@@H]3[C@@]2(C)CC1`: the figures for the IC50 in the experiment with BT-474 and with DU-145 [1] were 14.1 µM and 7.81 µM, respectively. In the experiment on HeLa [2], growth was halved (GI50) at 17 µM.

For `C[C@@H]1CC[C@@]2(OC1)O[C@H]1C[C@H]3[C@@H]4CCC5(OC#N)C[C@@H](O)CC[C@]5(C)[C@H]4CC[C@]3(C)[C@H]1[C@@H]2C` (some centres not stated), the 50% inhibitory concentration (IC50) turned out to be 5.1 µM with A549 [3] and 8.7 µM in the experiment with PC-9.

Turning to `CC(CCC[C@H](C)[C@H]1[C@@H](O)C[C@H]2[C@@H]3CC=C4C[C@@H](O)CC[C@]4(C)[C@H]3CC[C@]12C)C[Se]C#N` (some centres not stated), the IC50 in the experiment on A549 [4] turned out to be 1.7 µM; in the experiment with HBL it was 2.2 µM; with SW1573, 2.2 µM; in the experiment on HeLa [5], 3.3 µM; in the experiment on T47D it was 3.2 µM; with WiDr, 5.5 µM.

With `CC(=O)O[C@H]1CC[C@@]2(C)C(=CC[C@H]3[C@@H]4C[C@@H]5O[C@H](CC[C@@H](C)CO)[C@@H](C)[C@@H]5[C@@]4(C)CC[C@@H]32)C1`, the half-inhibitory concentration (IC50) with HeLa [6] came out at 11.4 µM; in the experiment with MCF7 [7], 11 µM.

For the compound `CC(=O)OC[C@H](C)CCC(=O)[C@@H](C)[C@H]1[C@@H](OC(C)=O)C[C@H]2[C@@H]3CC=C4C[C@H](N=[N+]=[N-])CC[C@]4(C)[C@H]3CC[C@]12C`, the IC50 in the experiment on HeLa [8] was found to be 11.8 µM.

`C[C@H]1CO[C@@]2(O[C@H]3C[C@H]4[C@@H]5/C(=N/CCCCCCC(=O)O)C=C6C[C@@H](O)CC[C@]6(C)[C@H]5CC[C@]4(C)[C@H]3[C@@H]2C)/C(=N/O)C1`: the concentration for half-maximal inhibition (IC50) with A549 [9] turned out to be 17.1 µM; in the experiment on DLD-1 [10], 16 µM; in the experiment with MCF7 [11] it was 15.6 µM; in the experiment with DU-145 [12], 16.6 µM; in the experiment with FaDu [13] it was 16.6 µM; in the experiment on A549 [16], 15.8 µM. Further, the IC50 in the experiment on DLD-1 [17] came out at 14.6 µM; with MCF7 [18], 15.8 µM; in the experiment on DU-145 [19], 12.8 µM; with FaDu [20], 15.2 µM. Besides, the figures for the Activity in the experiment with RAW264.7 [14] and in the experiment with RAW264.7 [15] were 19.73% and 41.72%, respectively.

With `CC(=O)O[C@H]1CC[C@@]2(C)C(=CC[C@H]3[C@@H]4C[C@@H]5O[C@H](CC[C@@H](C)COC(=O)N6CCN(C)CC6)[C@@H](C)[C@@H]5[C@@]4(C)CC[C@@H]32)C1`, the results for the IC50 with MDA-MB-231 and with Jurkat were 13.5 µM and 15.8 µM, respectively. Further, the Activity in the experiment with RAW264.7 [21] is on record as 33.66%; in the experiment with RAW264.7 [22] it was 49%.

Regarding `Cc1ccc2c(n1)C(=O)C(Cl)C(O[C@H]1CC[C@@]3(C)C(=CC[C@H]4[C@@H]5C[C@@H]6O[C@]7(CC[C@@H](C)CO7)[C@@H](C)[C@@H]6[C@@]5(C)CC[C@@H]43)C1)C2=O` (some centres not stated), in the experiment on HeLa [23], the IC50 was determined as 16 µM.

Turning to `C[C@@H]1CC[C@@]2(OC1)O[C@H]1C[C@H]3[C@@H]4CC=C5C[C@@H](OC6=C(Cl)C(=O)c7ccccc7C6=O)CC[C@]5(C)[C@H]4CC[C@]3(C)[C@H]1[C@@H]2C`, the IC50 in the experiment on HepG2 was 17.5 µM.
